# Values quoted from earlier work in patent US10058532B2, “Methods of preventing progression to type 2 diabetes mellitus” (Vivus, Inc., priority 2013, dated 2018).
# Read-outs that look alike come from different tables or passages of the source.
smiles,measurement,setting,value
"CC1(C)O[C@@H]2[C@@H](CO[C@@]3(COS(N)(=O)=O)OC(C)(C)O[C@@H]23)O1 [Topiramate, 2,3:4,5-di-O-isopropylidene-β-D-fructopyranose sulfamate]",solubility,methanol and acetone,freely soluble
same,solubility,pH 1 to pH 8 aqueous solutions,slightly soluble
same,solubility,pH 9 to pH 12 aqueous solutions,sparingly soluble
